Results published in ChEMBL document CHEMBL1158437, “The discovery of the potent aurora inhibitor MK-0457 (VX-680)” (Bioorg Med Chem Lett, 2009).
Converted amounts (≈) assume the structure as drawn. The source made the active and inactive calls. The rule behind the calls is not given here.

Legend:
Aurora kinase B [1] = biological target: T1, Aurora kinase B (Homo sapiens, UniProt Q96GD4); experiment: Inhibition of Aurora-B
[2] = biological target: Proto-oncogene tyrosine-protein kinase Src (Homo sapiens, UniProt P12931); experiment: Inhibition of Src
Chain of Proto-oncogene tyrosine-protein kinase Src (P12931 2-536 limits assumed): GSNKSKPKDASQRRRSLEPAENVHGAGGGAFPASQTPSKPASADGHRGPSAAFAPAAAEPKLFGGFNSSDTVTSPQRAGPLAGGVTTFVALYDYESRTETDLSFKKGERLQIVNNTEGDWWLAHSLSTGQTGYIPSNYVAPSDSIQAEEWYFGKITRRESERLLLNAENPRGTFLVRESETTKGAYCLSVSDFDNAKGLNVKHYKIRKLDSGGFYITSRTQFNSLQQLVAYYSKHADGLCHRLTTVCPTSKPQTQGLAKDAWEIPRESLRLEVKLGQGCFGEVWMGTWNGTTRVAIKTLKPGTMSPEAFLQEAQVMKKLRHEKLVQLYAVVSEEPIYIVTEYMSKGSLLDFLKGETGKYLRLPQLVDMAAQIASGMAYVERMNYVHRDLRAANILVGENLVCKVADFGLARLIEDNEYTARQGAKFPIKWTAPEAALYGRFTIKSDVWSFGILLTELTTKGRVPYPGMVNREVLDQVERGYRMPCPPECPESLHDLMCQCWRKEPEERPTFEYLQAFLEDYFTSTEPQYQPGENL

COLO 205 [3] = experiment: Antiproliferative activity against human COLO205 cells by [3H]thymidine uptake assay; format: functional, cell-based; details: for Activity: TDE = time-dependent effect
Aurora kinase A = biological target: T2, Aurora kinase A (Homo sapiens, UniProt O14965)
T2 sequence (O14965 whole entry): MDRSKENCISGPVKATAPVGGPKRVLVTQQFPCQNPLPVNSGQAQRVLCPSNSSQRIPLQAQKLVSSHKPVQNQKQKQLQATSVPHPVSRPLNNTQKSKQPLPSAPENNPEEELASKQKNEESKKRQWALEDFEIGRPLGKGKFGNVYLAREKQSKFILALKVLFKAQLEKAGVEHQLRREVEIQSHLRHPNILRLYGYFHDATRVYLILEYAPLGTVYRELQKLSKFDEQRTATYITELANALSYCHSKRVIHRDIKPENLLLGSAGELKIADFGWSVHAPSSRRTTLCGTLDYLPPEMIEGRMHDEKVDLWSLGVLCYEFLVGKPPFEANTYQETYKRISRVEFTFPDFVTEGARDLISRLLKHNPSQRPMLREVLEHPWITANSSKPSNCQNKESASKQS
Description: Inhibition of Aurora-A by coupled assay

[4] = Aqueous solubility at pH 7.4; format: physicochemical; details: buffer
Aurora kinase C = biological target: T3, Aurora kinase C (Homo sapiens, UniProt Q9UQB9); experiment: Inhibition of Aurora-C
T3 sequence (Q9UQB9 whole entry): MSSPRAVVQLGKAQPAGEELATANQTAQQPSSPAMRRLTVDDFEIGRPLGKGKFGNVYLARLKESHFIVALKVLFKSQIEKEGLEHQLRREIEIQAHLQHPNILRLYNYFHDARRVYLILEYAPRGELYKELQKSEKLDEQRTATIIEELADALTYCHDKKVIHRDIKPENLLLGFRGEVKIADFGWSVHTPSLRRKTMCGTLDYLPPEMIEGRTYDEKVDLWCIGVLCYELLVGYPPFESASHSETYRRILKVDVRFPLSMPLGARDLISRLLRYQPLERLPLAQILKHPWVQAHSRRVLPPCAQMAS

[5] = Half life in rat; format: ADME, organism-based; details: in vivo
[6] = Bioavailability in rat; format: ADME, organism-based; details: in vivo
[7] = biological target: Glycogen synthase kinase-3 beta (Homo sapiens, UniProt P49841)
Chain of Glycogen synthase kinase-3 beta (P49841 whole entry): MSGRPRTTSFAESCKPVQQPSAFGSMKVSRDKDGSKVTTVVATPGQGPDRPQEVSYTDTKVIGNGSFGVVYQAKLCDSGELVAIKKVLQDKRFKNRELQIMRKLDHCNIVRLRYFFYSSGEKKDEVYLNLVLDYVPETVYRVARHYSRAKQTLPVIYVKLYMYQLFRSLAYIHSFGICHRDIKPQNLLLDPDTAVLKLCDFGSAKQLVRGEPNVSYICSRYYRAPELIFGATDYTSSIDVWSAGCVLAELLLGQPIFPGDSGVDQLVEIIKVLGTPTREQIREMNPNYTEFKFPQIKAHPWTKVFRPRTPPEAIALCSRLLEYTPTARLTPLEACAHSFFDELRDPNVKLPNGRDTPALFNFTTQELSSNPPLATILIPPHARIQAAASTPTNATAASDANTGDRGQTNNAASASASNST

Aurora kinase B [8] = biological target: T1, Aurora kinase B; experiment: Inhibition of Aurora-B by time dependent kinetic study
COLO 205 [9] = experiment: Cytotoxicity against human COLO205 cells after 48 hrs by MTS assay; format: functional, cell-based; details: COLO 205, 48 h
COLO 205 [10] = experiment: Induction of apoptosis in human COLO205 cells by annexin V binding; format: functional, cell-based
COLO 205 [11] = experiment: Induction of apoptosis in human COLO205 cells assessed as DNA fragmentation by ELISA; format: functional, cell-based
COLO 205 [12] = experiment: Induction of apoptosis in human COLO205 cells by TUNEL staining; format: functional, cell-based
MCF7 = experiment: Antitumor activity against human MCF7 cells xenograft model assessed as tumor growth inhibition at 300 mg/kg, po bid; format: functional; details: read-out: GI

T1 sequence (Q96GD4 whole entry): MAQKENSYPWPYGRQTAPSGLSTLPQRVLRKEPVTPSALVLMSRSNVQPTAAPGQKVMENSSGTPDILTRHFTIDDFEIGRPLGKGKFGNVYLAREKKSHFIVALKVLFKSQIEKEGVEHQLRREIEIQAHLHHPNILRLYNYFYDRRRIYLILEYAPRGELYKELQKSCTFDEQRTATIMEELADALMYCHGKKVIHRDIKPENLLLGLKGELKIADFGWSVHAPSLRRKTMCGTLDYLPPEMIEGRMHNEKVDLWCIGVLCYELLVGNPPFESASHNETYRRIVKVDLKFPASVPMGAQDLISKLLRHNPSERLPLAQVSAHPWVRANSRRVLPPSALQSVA

| Structure (SMILES) | Ki (Aurora kinase B [1]) [nM] | IC50 (COLO 205 [3]) [nM] | Ki (Aurora kinase A) [nM] | further results |
| --- | --- | --- | --- | --- |
| Cc1cc(Nc2nc(Sc3ccc(Cl)cc3Cl)nc3ccccc23)n[nH]1 | > 1100 | – | – | – |
| CC(=O)N(C)c1ccc(Sc2nc(Nc3cc(C)[nH]n3)c3ccccc3n2)cc1 | 105 | 5770 | < 1 | Ki [2]: 796 nM |
| Cc1cc(Nc2nc(Sc3ccc(Cl)cc3)nc3ccccc23)n[nH]1 | > 1100 | – | – | – |
| Cc1cc(Nc2nc(Sc3ccc(Cl)c(Cl)c3)nc3ccccc23)n[nH]1 | > 40 | – | – | Ki [2]: > 38 nM |
| CCC(=O)Nc1ccc(Sc2nc(Nc3cc(C)[nH]n3)cc(-c3cccnc3)n2)cc1 | 52 | 470 | 3.9 | solubility [4]: < 1 µg/mL |
| CC(=O)Nc1ccc(Sc2nc(Nc3cc(C)[nH]n3)c3ccccc3n2)cc1 | – | – | – | Ki (Aurora kinase C): 11 nM; half-life [5]: 1.5 h; bioavailability [6]: 40% |
| CCC(=O)Nc1ccc(Sc2nc(Nc3cc(C)n[nH]3)cc(N3CCN(C4CC4)CC3)n2)cc1 | 9.5 | – | < 1 | solubility [4]: 12.8 µg/mL (≈ 26.7 µM) |
| CC(=O)Nc1ccc(Sc2nc(C)cc(Nc3cc(C)n[nH]3)n2)cc1 | 220 | 2000 | 18 | solubility [4]: < 1 µg/mL |
| CC(=O)Nc1ccc(Sc2nc(Nc3cc(C4CC4)[nH]n3)c3ccccc3n2)cc1 | 15 | 210 | – | – |
| CCC(=O)Nc1ccc(Sc2nc(Nc3cc(C)[nH]n3)cc(-c3ccccc3)n2)cc1 | 145 | 870 | < 1 | – |
| CCC(=O)Nc1ccc(Sc2nc(Nc3cc(C)[nH]n3)cc(N3CCN(C(C)(C)C)CC3)n2)cc1 | – | – | – | Activity (COLO 205 [3]): tde |
| Cc1cc(Nc2nc(Sc3ccc(NC(=O)OC(C)(C)C)cc3)nc3ccccc23)n[nH]1 | 250 | 2870 | – | Ki [2]: > 3000 nM; Ki [7]: > 4000 nM |
| CCC(=O)Nc1ccc(Sc2nc(Nc3cc(C)n[nH]3)cc(N3CCN(C(C)(C)C)CC3)n2)cc1 | 11 | – | 1.3 | solubility [4]: 221 µg/mL (≈ 446 µM); half-life [5]: 8 h; Ki (Aurora kinase B [8]): 0.8 nM |
| COc1ccc(Sc2nc(Nc3cc(C)[nH]n3)c3ccccc3n2)cc1 | 575 | – | – | – |
| CC(=O)Nc1ccc(Sc2nccc(Nc3cc(C)[nH]n3)n2)cc1 | 207 | 4050 | 86 | solubility [4]: 13.8 µg/mL (≈ 40.5 µM) |
| CCC(=O)Nc1ccc(Sc2nc(Nc3cc(C)[nH]n3)cc(C(C)(C)C)n2)cc1 | 115 | 2000 | 10 | solubility [4]: 11.2 µg/mL (≈ 27.3 µM) |
| CC(=O)Nc1ccc(Sc2nc(Nc3cc(C)[nH]n3)cc(-c3ccccc3)n2)cc1 | 83 | – | 2.4 | – |
| Cc1cc(Nc2nc(Sc3ccc4ccccc4c3)nc3ccccc23)n[nH]1 | > 40 | > 12000 | – | Ki [2]: > 500 nM; Ki [7]: > 150 nM |
| Cc1cc(Nc2nc(Sc3cccc(Cl)c3Cl)nc3ccccc23)n[nH]1 | 675 | – | – | – |
| Cc1cc(Nc2nc(Sc3c(Cl)cccc3Cl)nc3ccccc23)n[nH]1 | > 1100 | – | – | – |
| Cc1cc(Nc2nc(Sc3ccccc3Cl)nc3ccccc23)n[nH]1 | 445 | – | – | – |
| CCC(=O)Nc1ccc(Sc2nc(Nc3cc(C)n[nH]3)cc(C3CC3)n2)cc1 | 59 | 1420 | 3.9 | – |
| CCC(=O)Nc1ccc(Sc2nc(Nc3cc(C)[nH]n3)cc(N3CCNCC3)n2)cc1 | – | – | – | Activity (COLO 205 [3]): tde |

| Structure (SMILES) | Ki (Aurora kinase B [1]) [nM] | IC50 (COLO 205 [3]) [nM] | Ki (Aurora kinase A) [nM] | further results |
| --- | --- | --- | --- | --- |
| Cc1cc(Nc2cc(N3CCN(C)CC3)nc(Sc3ccc(NC(=O)C4CC4)cc3)n2)n[nH]1 [TOZASERTIB] | – | 19 | – | Activity (COLO 205 [3]): tde |
| Cc1cc(Nc2nc(-c3ccncc3)nc3ccccc23)n[nH]1 | – | – | 81 | Ki [2]: 181 nM; Ki [7]: 73 nM |
| CCC(=O)Nc1ccc(Sc2nc(Nc3cc(C)[nH]n3)cc(N3CCN(C)CC3)n2)cc1 | 20 | – | 1.6 | Activity (COLO 205 [3]): tde; solubility [4]: 63.4 µg/mL (≈ 140 µM) |
| CCC(=O)Nc1ccc(Sc2nc(C)cc(Nc3cc(C)n[nH]3)n2)cc1 | 153 | 720 | 5.1 | solubility [4]: 4.2 µg/mL (≈ 11.4 µM) |
| CCC(=O)Nc1ccc(Sc2nc(Nc3cc(C)n[nH]3)cc(N3CCOCC3)n2)cc1 | 14 | – | 1.7 | solubility [4]: 5.4 µg/mL (≈ 12.3 µM) |
| CC(=O)Nc1ccc(Sc2nc(Nc3cc(C)n[nH]3)c3ccccc3n2)cc1 | – | – | – | IC50 (COLO 205 [9]): 8500 nM; Activity (COLO 205 [10]): Active; Activity (COLO 205 [11]): Active; Activity (COLO 205 [12]): Active; inhibition in vivo at 300 mg/kg (MCF7): 50% |
| CC(=O)Nc1ccc(Sc2nc(Nc3cc[nH]n3)c3ccccc3n2)cc1 | > 1100 | 2200 | – | – |
| COc1ccc(Sc2nc(Nc3cc(C)[nH]n3)c3ccccc3n2)cc1OC | 120 | – | – | – |
| CCC(=O)Nc1ccc(Sc2nc(Nc3cc(C)n[nH]3)cc(N3CCN(CC)CC3)n2)cc1 | 25 | – | < 1 | solubility [4]: 114 µg/mL (≈ 245 µM) |
| Cc1cc(Nc2cc(N3CCN(C)CC3)nc(Sc3ccc(NC(=O)C4CC4)cc3)n2)[nH]n1 [TOZASERTIB] | – | – | – | solubility [4]: 6.8 µg/mL (≈ 14.6 µM) |
| CCC(=O)Nc1ccc(Sc2nc(Nc3cc(C)[nH]n3)cc(N3CCN(C4CC4)CC3)n2)cc1 | – | – | – | Activity (COLO 205 [3]): tde |
| CCC(=O)Nc1ccc(Sc2nc(Nc3cc(C)[nH]n3)cc(N3CCN(CC)CC3)n2)cc1 | – | – | – | Activity (COLO 205 [3]): tde |
| COc1ccccc1Sc1nc(Nc2cc(C)[nH]n2)c2ccccc2n1 | 995 | – | – | Ki [2]: > 1000 nM |
| CCC(=O)Nc1ccc(Sc2nc(Nc3cc(C)[nH]n3)c3ccccc3n2)cc1 | 57 | 830 | – | – |
| Cc1cc(Nc2nc(Sc3ccc(NS(C)(=O)=O)cc3)nc3ccccc23)n[nH]1 | 230 | 780 | – | – |
| CCC(=O)Nc1ccc(Sc2nc(Nc3cc(C)[nH]n3)cc(N3CCC3)n2)cc1 | 23 | 730 | 2.4 | – |
| Cc1cc(Nc2nc(Sc3ccc(NC(=O)C4CC4)cc3)nc3ccccc23)n[nH]1 | 51 | 910 | – | – |
| CCC(=O)Nc1ccc(Sc2nc(Nc3cc(C)n[nH]3)cc(N3CCCCC3)n2)cc1 | 8 | – | 1.6 | – |
| Cc1cc(Nc2nc(Sc3ccccc3)nc3ccccc23)n[nH]1 | 590 | – | – | – |
| Cc1cc(Nc2nc(Sc3cccc(Cl)c3)nc3ccccc23)n[nH]1 | 185 | – | – | – |
| CCC(=O)Nc1ccc(Sc2nc(Nc3cc(C)[nH]n3)cc(-c3ccncc3)n2)cc1 | 49 | 1000 | < 3 | – |
| CCC(=O)Nc1ccc(Sc2nc(Nc3cc(C)n[nH]3)cc(N3CCNCC3)n2)cc1 | 18 | – | 3.7 | solubility [4]: 296 µg/mL (≈ 675 µM) |
